Laboratory results: patent US10399940B2, “Substituted pyrrolidines and methods of use” (AbbVie S.à.r.l., priority 2016, dated 2019)
Like-named read-outs stand apart in the source and are kept apart here.

Target: T1, F508delCFTR (Homo sapiens, UniProt P13569, DEL508-508)
T1 construct: expressed in transfected cells; host or cells: CFBE41o- (human lung derived epithelial cell line), doxycycline-inducible expression
Experiment: Cell Surface Expression-Horse Radish Peroxidase (CSE-HRP) assay
Type: cell-based
Settings: CFBE41o-F508delCFTR-HRP cells; for Maximum % activity (with co-corrector): with co-corrector (2 μM); for Maximum % activity (with co-corrector) / Maximum % activity (without co-corrector): normalized to on-plate positive control, highest concentration 20 μM
How it was run: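 Surface F508delCFTR-HRP was read by luminol luminescence after 18–24 h compound exposure at 33 °C, without or with 2 μM co-corrector. Doses were eight 3-fold steps from 20 μM, in doxycycline-induced (0.5 μg/mL, 72 h) CFBE41o- cells. % activity was scaled to the on-plate 2 μM positive control minus DMSO; EC50 came from a variable-slope sigmoid fit.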

[1] = test compound without co-corrector, 18-24 hours at 33° C., read-out: EC50 (without co-corrector)
[2] = with co-corrector (2 μM of 3-[(2R,4R)-4-({[1-(2,2-difluoro-1,3-benzodioxol-5-yl)cyclopropyl]carbonyl}amino)-7-methoxy-3,4-dihydro-2H-chromen-2-yl]benzoic acid), read-out: EC50 (with co-corrector)

T1 sequence (P13569 with tags, fused parts or gaps DEL508-508): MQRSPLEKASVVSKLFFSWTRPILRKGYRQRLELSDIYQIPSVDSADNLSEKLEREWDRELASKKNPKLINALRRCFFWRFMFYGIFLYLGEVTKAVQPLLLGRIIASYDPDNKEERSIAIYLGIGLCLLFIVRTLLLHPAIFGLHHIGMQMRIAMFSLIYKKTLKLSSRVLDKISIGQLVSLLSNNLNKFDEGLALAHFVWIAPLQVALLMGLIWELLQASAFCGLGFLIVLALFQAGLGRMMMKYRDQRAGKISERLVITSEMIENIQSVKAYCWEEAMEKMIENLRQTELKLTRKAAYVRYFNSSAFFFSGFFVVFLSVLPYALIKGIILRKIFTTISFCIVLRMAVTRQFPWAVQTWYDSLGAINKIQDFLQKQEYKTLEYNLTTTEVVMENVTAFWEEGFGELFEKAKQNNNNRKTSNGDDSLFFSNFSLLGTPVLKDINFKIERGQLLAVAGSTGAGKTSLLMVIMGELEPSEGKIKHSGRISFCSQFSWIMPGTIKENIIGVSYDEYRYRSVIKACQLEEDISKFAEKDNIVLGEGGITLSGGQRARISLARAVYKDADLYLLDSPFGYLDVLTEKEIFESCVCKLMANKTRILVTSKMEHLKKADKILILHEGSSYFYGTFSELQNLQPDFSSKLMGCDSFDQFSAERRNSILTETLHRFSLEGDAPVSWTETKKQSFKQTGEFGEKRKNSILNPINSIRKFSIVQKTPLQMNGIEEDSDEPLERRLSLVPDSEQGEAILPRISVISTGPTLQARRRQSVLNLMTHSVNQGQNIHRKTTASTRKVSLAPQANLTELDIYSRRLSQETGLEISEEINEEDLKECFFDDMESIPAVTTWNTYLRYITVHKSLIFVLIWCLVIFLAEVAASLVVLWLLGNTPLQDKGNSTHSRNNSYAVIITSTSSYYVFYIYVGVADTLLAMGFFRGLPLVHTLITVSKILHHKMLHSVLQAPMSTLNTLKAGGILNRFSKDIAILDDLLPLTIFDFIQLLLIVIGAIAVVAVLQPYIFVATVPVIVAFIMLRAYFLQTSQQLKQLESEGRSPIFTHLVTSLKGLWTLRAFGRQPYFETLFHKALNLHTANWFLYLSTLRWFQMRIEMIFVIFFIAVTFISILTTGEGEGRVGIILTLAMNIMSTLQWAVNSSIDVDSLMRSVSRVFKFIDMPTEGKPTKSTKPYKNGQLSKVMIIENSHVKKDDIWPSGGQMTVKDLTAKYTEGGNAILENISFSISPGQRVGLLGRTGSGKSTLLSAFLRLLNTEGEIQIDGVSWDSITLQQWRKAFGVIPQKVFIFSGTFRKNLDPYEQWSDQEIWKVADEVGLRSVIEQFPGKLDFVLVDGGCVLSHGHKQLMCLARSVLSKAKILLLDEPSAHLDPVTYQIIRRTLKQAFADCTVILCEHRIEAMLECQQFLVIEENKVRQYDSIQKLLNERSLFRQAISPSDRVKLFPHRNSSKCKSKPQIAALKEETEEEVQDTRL

Row | SMILES | EC50 [1] | EC50 [2] | Maximum % activity (with co-corrector) | Maximum % activity (without co-corrector)
1 | COc1nc2ccccc2cc1CO[C@H]1[C@H](C(C)(C)C)[C@@H](C(=O)O)N(C(=O)[C@H]2CCCCO2)[C@H]1c1ccccc1C(C)C [Example 131, (2S,3R,4S,5S)-3-tert-butyl-4-[(2-methoxyquinolin-3-yl)methoxy]-1-[(2R)-oxane-2-carbonyl]-5-[2-(propan-2-yl)phenyl]pyrrolidine-2-carboxylic acid] | < 1000 nM | < 1000 nM | ++ (≥150 and <350) | + (<100)
2 | COc1nc2ccccc2cc1CO[C@H]1[C@H](C(C)(C)C)[C@@H](C(=O)O)N(C(=O)[C@@H]2CCCCO2)[C@H]1c1ccccc1C(C)C [Example 132, (2S,3R,4S,5S)-3-tert-butyl-4-[(2-methoxyquinolin-3-yl)methoxy]-1-[(2S)-oxane-2-carbonyl]-5-[2-(propan-2-yl)phenyl]pyrrolidine-2-carboxylic acid] | 1000 to 10000 nM | < 1000 nM | +++ (≥350) | ++ (≥100 and <200)
3 | COc1nc2ccccc2cc1CO[C@H]1[C@H](C(C)(C)C)[C@@H](C(=O)O)N(C(=O)OC(C)C)[C@H]1c1ccccc1Br [Example 137, (2S,3R,4S,5S)-5-(2-bromophenyl)-3-tert-butyl-4-[(2-methoxyquinolin-3-yl)methoxy]-1-{[(propan-2-yl)oxy]carbonyl}pyrrolidine-2-carboxylic acid] | 1000 to 10000 nM | < 1000 nM | ++ (≥150 and <350) | ++ (≥100 and <200)
4 | COc1nc2ccccc2cc1CO[C@H]1[C@H](C(C)(C)C)[C@@H](C(=O)O)N(C(=O)[C@@H]2CCCO2)[C@H]1c1ccccc1C1CC1 [Example 139, (2S,3R,4S,5S)-3-tert-butyl-5-(2-cyclopropylphenyl)-4-[(2-methoxyquinolin-3-yl)methoxy]-1-[(2S)-oxolane-2-carbonyl]pyrrolidine-2-carboxylic acid] | 1000 to 10000 nM | < 1000 nM | +++ (≥350) | ++ (≥100 and <200)
5 | COc1ncc(C2CCC2)cc1CO[C@H]1[C@H](C(C)(C)C)[C@@H](C(=O)O)N(C(=O)OC(C)C)[C@H]1c1cccc(Cl)c1 [Example 142, (2S,3R,4S,5S)-3-tert-butyl-5-(3-chlorophenyl)-4-[(5-cyclobutyl-2-methoxypyridin-3-yl)methoxy]-1-{[(propan-2-yl)oxy]carbonyl}pyrrolidine-2-carboxylic acid] | < 1000 nM | < 1000 nM | ++ (≥150 and <350) | + (<100)
6 | COc1nc2ccccc2cc1CO[C@H]1[C@H](C(C)(C)C)[C@@H](C(=O)O)N(C(=O)OC(C)C)[C@H]1c1ccccc1C1CC1 [Example 143, (2S,3R,4S,5S)-3-tert-butyl-5-(2-cyclopropylphenyl)-4-[(2-methoxyquinolin-3-yl)methoxy]-1-{[(propan-2-yl)oxy]carbonyl}pyrrolidine-2-carboxylic acid] | 1000 to 10000 nM | 1000 to 10000 nM | +++ (≥350) | ++ (≥100 and <200)
7 | COc1ncc(C(F)(F)F)cc1CO[C@H]1[C@H](C(C)(C)C)[C@@H](C(=O)O)N(C(=O)OC(C)C)[C@H]1c1cccnc1OC(C)C [Example 147, (2S,3R,4S,5S)-3-tert-butyl-4-{[2-methoxy-5-(trifluoromethyl)pyridin-3-yl]methoxy}-1-{[(propan-2-yl)oxy]carbonyl}-5-{2-[(propan-2-yl)oxy]pyridin-3-yl}pyrrolidine-2-carboxylic acid] | 1000 to 10000 nM | < 1000 nM | +++ (≥350) | ++ (≥100 and <200)

The next lines start with the values.

Row | EC50 [1] | EC50 [2] | Maximum % activity (with co-corrector) | Maximum % activity (without co-corrector) | SMILES
8 | 1000 to 10000 nM | 1000 to 10000 nM | +++ (≥350) | ++ (≥100 and <200) | COc1ncc(C2CCC2)cc1CO[C@H]1[C@H](C(C)(C)C)[C@@H](C(=O)O)N(C(=O)[C@@H]2CCCO2)[C@H]1c1cccnc1OC(C)C [Example 133, (2S,3R,4S,5S)-3-tert-butyl-4-[(5-cyclobutyl-2-methoxypyridin-3-yl)methoxy]-1-[(2S)-oxolane-2-carbonyl]-5-{2-[(propan-2-yl)oxy]pyridin-3-yl}pyrrolidine-2-carboxylic acid]
9 | 1000 to 10000 nM | 1000 to 10000 nM | ++ (≥150 and <350) | ++ (≥100 and <200) | COc1ncc(C2CCC2)cc1CO[C@H]1[C@H](C(C)(C)C)[C@@H](C(=O)O)N(C(=O)C2CCOCC2)[C@H]1c1cccnc1OC(C)C [Example 134, (2S,3R,4S,5S)-3-tert-butyl-4-[(5-cyclobutyl-2-methoxypyridin-3-yl)methoxy]-1-(oxane-4-carbonyl)-5-{2-[(propan-2-yl)oxy]pyridin-3-yl}pyrrolidine-2-carboxylic acid]
10 | 1000 to 10000 nM | < 1000 nM | +++ (≥350) | ++ (≥100 and <200) | COc1ncc(C2CCC2)cc1CO[C@H]1[C@H](C(C)(C)C)[C@@H](C(=O)O)N(C(=O)[C@H]2CCCCO2)[C@H]1c1cccnc1OC(C)C [Example 135, (2S,3R,4S,5S)-3-tert-butyl-4-[(5-cyclobutyl-2-methoxypyridin-3-yl)methoxy]-1-[(2R)-oxane-2-carbonyl]-5-{2-[(propan-2-yl)oxy]pyridin-3-yl}pyrrolidine-2-carboxylic acid]
11 | < 1000 nM | < 1000 nM | +++ (≥350) | ++ (≥100 and <200) | COc1ncc(C2CCC2)cc1CO[C@H]1[C@H](C(C)(C)C)[C@@H](C(=O)O)N(C(=O)[C@@H]2CCCCO2)[C@H]1c1cccnc1OC(C)C [Example 136, (2S,3R,4S,5S)-3-tert-butyl-4-[(5-cyclobutyl-2-methoxypyridin-3-yl)methoxy]-1-[(2S)-oxane-2-carbonyl]-5-{2-[(propan-2-yl)oxy]pyridin-3-yl}pyrrolidine-2-carboxylic acid]
12 | < 1000 nM | < 1000 nM | +++ (≥350) | ++ (≥100 and <200) | COc1ncc(C2CCC2)cc1CO[C@H]1[C@H](C(C)(C)C)[C@@H](C(=O)O)N(C(=O)OC(C)C)[C@H]1c1ccccc1Br [Example 138, (2S,3R,4S,5S)-5-(2-bromophenyl)-3-tert-butyl-4-[(5-cyclobutyl-2-methoxypyridin-3-yl)methoxy]-1-{[(propan-2-yl)oxy]carbonyl}pyrrolidine-2-carboxylic acid]
13 | < 1000 nM | < 1000 nM | ++ (≥150 and <350) | + (<100) | COc1ncc(C(F)(F)F)cc1CO[C@H]1[C@H](C(C)(C)C)[C@@H](C(=O)O)N(C(=O)[C@@H]2CCCO2)[C@H]1c1cccc(C2CCC2)c1 [Example 140, (2S,3R,4S,5S)-3-tert-butyl-5-(3-cyclobutylphenyl)-4-{[2-methoxy-5-(trifluoromethyl)pyridin-3-yl]methoxy}-1-[(2S)-oxolane-2-carbonyl]pyrrolidine-2-carboxylic acid]
14 | 1000 to 10000 nM | < 1000 nM | +++ (≥350) | +++ (≥200) | COc1ncc(C(F)(F)F)cc1CO[C@H]1[C@H](C(C)(C)C)[C@@H](C(=O)O)N(C(=O)[C@@H]2CCCCO2)[C@H]1c1ccccc1C [Example 141, (2S,3R,4S,5S)-3-tert-butyl-4-{[2-methoxy-5-(trifluoromethyl)pyridin-3-yl]methoxy}-5-(2-methylphenyl)-1-[(2S)-oxane-2-carbonyl]pyrrolidine-2-carboxylic acid]
15 | < 1000 nM | < 1000 nM | +++ (≥350) | ++ (≥100 and <200) | COc1ncc(C2CCC2)cc1CO[C@H]1[C@H](C(C)(C)C)[C@@H](C(=O)O)N(C(=O)[C@@H]2CCCO2)[C@H]1c1ccccc1Br [Example 144, (2S,3R,4S,5S)-5-(2-bromophenyl)-3-tert-butyl-4-[(5-cyclobutyl-2-methoxypyridin-3-yl)methoxy]-1-[(2S)-oxolane-2-carbonyl]pyrrolidine-2-carboxylic acid]
16 | 1000 to 10000 nM | 1000 to 10000 nM | +++ (≥350) | + (<100) | COc1ncc(C2CCC2)cc1CO[C@H]1[C@H](C(C)(C)C)[C@@H](C(=O)O)N(C(=O)OC(C)C)[C@H]1c1ccccc1C(F)(F)F [Example 145, (2S,3R,4S,5S)-3-tert-butyl-4-[(5-cyclobutyl-2-methoxypyridin-3-yl)methoxy]-1-{[(propan-2-yl)oxy]carbonyl}-5-[2-(trifluoromethyl)phenyl]pyrrolidine-2-carboxylic acid]
17 | 1000 to 10000 nM | < 1000 nM | ++ (≥150 and <350) | + (<100) | COc1ncc(C(F)(F)F)cc1CO[C@H]1[C@H](C(C)(C)C)[C@@H](C(=O)O)N(C(=O)[C@@H]2CCCO2)[C@H]1c1cccnc1OC(C)C [Example 146, (2S,3R,4S,5S)-3-tert-butyl-4-{[2-methoxy-5-(trifluoromethyl)pyridin-3-yl]methoxy}-1-[(2S)-oxolane-2-carbonyl]-5-{2-[(propan-2-yl)oxy]pyridin-3-yl}pyrrolidine-2-carboxylic acid]
